Test results as given in patent publication US11767341B2, “Lincosamide antibiotics and uses thereof” (President and Fellows of Harvard College, priority 2017, dated 2023).
≈ marks a conversion by molar mass, not a printed value. Like-named read-outs stand apart in the source and are kept apart here.

What was measured:
Experiment in all cases: MIC determination
Format in all cases: cell-based
S. aureus ATCC 29213 = tested on: S. aureus ATCC 29213
S. aureus BAA 977 iErmA = settings: Staphylococcus aureus, BAA977
[1] = tested on: S. aureus MP-549 msr(a) USA 300; settings: Staphylococcus aureus, USA300, S. aureus MP-549 msr(a) USA 300
S. aureus MMX 3035 cErmA = settings: Staphylococcus aureus, MMX3035CERMA; S. aureus MMX 3035 cErmA; read-out: MIC
S. pneumoniae ATCC 49619 = settings: Streptococcus pneumoniae, ATCC49619
[2] = tested on: S. pneumoniae MMX 3028 cErmB; settings: Streptococcus pneumoniae, MMX3028CERMB
[3] = tested on: S. pneumoniae MMX 3031 cMefA; settings: Streptococcus pneumoniae, MMX3031CMEFA
S. pyogenes ATCC 19615 = settings: Streptococcus pyogenes, ATCC19615; S. pyogenes ATCC 19615; read-out: MIC
[4] = tested on: S. pyogenes MMX 946 Macrolide-Resistant; settings: Streptococcus pyogenes
E. faecalis ATCC 29212 = settings: Enterococcus faecalis, ATCC29212, read-out: MIC
[5] = tested on: E. faecalis MMX 847 Macrolide-Resistant; settings: Enterococcus faecalis, read-out: MIC
K. pneumoniae ATCC 10031 = settings: Klebsiella pneumoniae, ATCC10031
E. coli ATCC 25922 = settings: Escherichia coli, ATCC25922, E. coli ATCC 25922; read-out: MIC
E. coli MP-9 ΔTolC = settings: Escherichia coli
[6] = tested on: E. coli MP-74 LptD mutant; settings: Escherichia coli
H. influenzae ATCC 49247 = settings: Haemophilus influenzae, ATCC49247
[7] = Staphylococcus aureus, ATCC29213, S. aureus ATCC 29213, read-out: MIC
[8] = S. pneumoniae ATCC 49619, read-out: MIC
[9] = S. pneumoniae MMX 3028 cErmB, read-out: MIC
[10] = E. faecalis MMX 847 Macrolide-Resistant (MacRes)
[11] = K. pneumoniae ATCC 10031, read-out: MIC
[12] = S. pyogenes MMX 946 MacRes, read-out: MIC
[13] = H. influenzae ATCC 49247, read-out: MIC

| Structure (SMILES) | MIC (S. aureus ATCC 29213; [7]) [µg/mL] | MIC (S. aureus BAA 977 iErmA) [µg/mL] | MIC [1] [µg/mL] | MIC (S. aureus MMX 3035 cErmA) [µg/mL] | MIC (S. pneumoniae ATCC 49619; [8]) [µg/mL] | MIC [2, 9] [µg/mL] | MIC [3] [µg/mL] | MIC (S. pyogenes ATCC 19615) [µg/mL] | MIC (E. faecalis ATCC 29212) [µg/mL] | MIC (K. pneumoniae ATCC 10031; [11]) [µg/mL] | MIC (E. coli ATCC 25922) [µg/mL] | MIC (E. coli MP-9 ΔTolC) [µg/mL] | MIC [6] [µg/mL] | MIC (H. influenzae ATCC 49247; [13]) [µg/mL] | also measured |
| --- | --- | --- | --- | --- | --- | --- | --- | --- | --- | --- | --- | --- | --- | --- | --- |
| CSC1O[C@H]([C@H](NC(=O)[C@H]2NC[C@@H]3CC=CCO[C@H]32)[C@H](C)Sc2ccc(-c3cccnc3)cc2)C(O)[C@@H](O)[C@H]1O (stereo partly drawn) [FSA-213061] | 0.25 (≈ 0.425 µM) | 0.25 (≈ 0.425 µM) | 0.5 (≈ 0.851 µM) | 64 (≈ 109 µM) | ≤ 0.06 | 8 (≈ 13.6 µM) | 0.125 (≈ 0.213 µM) | ≤ 0.06 | 16 (≈ 27.2 µM) | 32 (≈ 54.4 µM) | > 64 | 8 (≈ 13.6 µM) | 8 (≈ 13.6 µM) | – | MIC ([4]; S. pyogenes MMX 946 Macrolide-Resistant (MacRes), read-out: MIC): 4 µg/mL (≈ 6.81 µM); MIC [5, 10]: > 64 µg/mL |
| CSC1O[C@H]([C@H](NC(=O)[C@H]2NC[C@@H]3C[C@@H](c4ccc(C(F)(F)F)cc4)CCO[C@H]32)[C@H](C)Cl)C(O)[C@@H](O)[C@H]1O (stereo partly drawn) [FSA-509019] | ≤ 0.06 | 0.25 (≈ 0.429 µM) | – | 64 (≈ 110 µM) | ≤ 0.06 | – | 0.125 (≈ 0.214 µM) | ≤ 0.06 | 1 (≈ 1.72 µM) | – | – | 16 (≈ 27.4 µM) | 32 (≈ 54.9 µM) | – | MIC [2]: 16 µg/mL (≈ 27.4 µM); MIC [4]: 32 µg/mL (≈ 54.9 µM); MIC [5, 10]: 64 µg/mL (≈ 110 µM); MIC (K. pneumoniae ATCC 10031): 16 µg/mL (≈ 27.4 µM) |
| CSC1O[C@H]([C@H](NC(=O)[C@H]2NC[C@@H]3C[C@@H](CCc4ccccc4)CCO[C@H]32)[C@H](C)Cl)C(O)[C@@H](O)[C@H]1O (stereo partly drawn) [FSA-510021] | 0.125 (≈ 0.23 µM) | 0.125 (≈ 0.23 µM) | 0.125 (≈ 0.23 µM) | 4 (≈ 7.36 µM) | ≤ 0.06 | 4 (≈ 7.36 µM) | ≤ 0.06 | ≤ 0.06 | 0.25 (≈ 0.46 µM) | 4 (≈ 7.36 µM) | 64 (≈ 118 µM) | 4 (≈ 7.36 µM) | 4 (≈ 7.36 µM) | 1 (≈ 1.84 µM) | MIC [4, 12]: 1 µg/mL (≈ 1.84 µM); MIC ([5]; E. faecalis MMX 847 MacRes): 4 µg/mL (≈ 7.36 µM) |
| CSC1O[C@H]([C@H](NC(=O)[C@H]2NC[C@@H]3C[C@@H](CCc4cccc(F)c4)CCO[C@H]32)[C@H](C)Cl)C(O)[C@@H](O)[C@H]1O (stereo partly drawn) [FSA-510022] | 0.12 (≈ 0.214 µM) | 0.12 (≈ 0.214 µM) | 0.12 (≈ 0.214 µM) | 2 (≈ 3.56 µM) | ≤ 0.06 | 4 (≈ 7.13 µM) | ≤ 0.06 | ≤ 0.06 | 0.25 (≈ 0.446 µM) | 2 (≈ 3.56 µM) | 32 (≈ 57 µM) | 4 (≈ 7.13 µM) | 4 (≈ 7.13 µM) | 1 (≈ 1.78 µM) | MIC [4, 12]: 0.5 µg/mL (≈ 0.891 µM); MIC ([5]; E. faecalis MMX 847 MacRes): 2 µg/mL (≈ 3.56 µM) |
| CSC1O[C@H]([C@H](NC(=O)[C@H]2NC[C@@H]3CC(c4ccc(C)cc4)CCO[C@H]32)[C@H](C)Cl)C(O)[C@@H](O)[C@H]1O (stereo partly drawn) [FSA-511044] | 0.25 (≈ 0.473 µM) | – | 0.5 (≈ 0.945 µM) | – | – | – | – | ≤ 0.06 | 2 (≈ 3.78 µM) | 32 (≈ 60.5 µM) | > 64 | 16 (≈ 30.2 µM) | 16 (≈ 30.2 µM) | – | MIC (S. pneumoniae ATCC 49619): 0.5 µg/mL (≈ 0.945 µM); MIC (H. influenzae ATCC 49247): 16 µg/mL (≈ 30.2 µM) |
| COc1ccc(C2CCO[C@@H]3[C@H](CN[C@@H]3C(=O)N[C@H]([C@H](C)Cl)[C@H]3OC(SC)[C@H](O)C(O)C3O)C2)cc1 (stereo partly drawn) [FSA-511045] | – | – | 0.25 (≈ 0.459 µM) | – | ≤ 0.06 | – | – | ≤ 0.06 | 1 (≈ 1.83 µM) | 16 (≈ 29.4 µM) | > 64 | 8 (≈ 14.7 µM) | 32 (≈ 58.7 µM) | 16 (≈ 29.4 µM) | MIC (S. aureus ATCC 29213; Staphylococcus aureus, ATCC29213): 0.5 µg/mL (≈ 0.917 µM) |
| CSC1O[C@H]([C@H](NC(=O)[C@H]2NC[C@@H]3C[C@@H](c4ccc(C#N)cc4)CCO[C@H]32)[C@H](C)Cl)C(O)[C@@H](O)[C@H]1O (stereo partly drawn) [FSA-511046] | – | – | 0.5 (≈ 0.926 µM) | – | ≤ 0.06 | – | – | ≤ 0.06 | 1 (≈ 1.85 µM) | – | > 64 | 8 (≈ 14.8 µM) | 32 (≈ 59.3 µM) | – | MIC (S. aureus ATCC 29213; S. aureus ATCC 29213): 1 µg/mL (≈ 1.85 µM); MIC (K. pneumoniae ATCC 10031): 16 µg/mL (≈ 29.6 µM); MIC (H. influenzae ATCC 49247): 16 µg/mL (≈ 29.6 µM) |
